Data: patent US11236078B2, “Heterocyclic inhibitors of the sodium channel” (priority 2014, dated 2022)

How the values were obtained:
Type in all cases: cell-based
human Nav1.7 (hNav1.7) [1] = target: T1, human Nav1.7 (hNav1.7) (Homo sapiens, UniProt Q15858); test: hNav1.7 slow inactivation block, manual patchclamp; details: HEK 293F cells stably expressing hNav1.7, slow inactivation induced in approximately 50% of channels
T1 construct: expressed in transfected cells
Description: (§1) The generation of HEK 293F cell lines stably expressing human Nav1.7 (h Nav1.7), human Nav1.5 (hNav1.5) and rat Nav1.2 (r Nav1.2) was achieved by subcloning SCN9A, SCN5A, and SCN2A genes into inducible expression vectors followed by transfection into target cells using standard techniques. In the case of h Nav1.7, an expression vector encoding the human Navβ1 auxiliary subunit gene, SCN1B, was co-transfected with the expression vector bearing the SCN9A gene. Clones were selected using appropriate selection agents (0.3 mg/mL Zeocin and 0.8 mg/mL Geneticin) and maintained in Dulbecco's Modified Eagle medium, 10% fetal bovine serum, 1% non-essential amino acids to ˜80% confluence at 37° C. in a humidified incubator with 95% atmosphere and 5% CO2.
(§2) On the day of each experiment, cells that were grown to 80% confluence in a T75 flask were harvested for use on PatchXpress (Molecular Devices, CA, USA). Following a recovery period at 37° C. in a humidified incubator with 95% atmosphere and 5% CO2 in Dulbecco's Modified Eagle Medium, the media was replaced with an external recording solution containing (in mM): 90 TEACl, 50 NaCl, 1.8 CaCl2, 1 MgCl2, 10 HEPES, 10 glucose, adjusted to pH 7.4 with TEAOH and 300 mOsm with sucrose. The internal recording solution contained (in mM): 129 CsF, 2 MgCl2, 11 EGTA, 10 HEPES, 6 NaCl, 3 Na2ATP adjusted to pH 7.2 with CsOH and 280 mOsm with sucrose. The automated liquid handling facility of PatchXpress dispensed cells and added compound. Modulation of Nav1.7 channels by compounds was assessed by promoting the channels into the inactivated state using a conditioning voltage pulse of variable amplitude, followed by a brief hyperpolarizing pulse with a subsequent depolarized voltage step to measure the current amplitude in the presence and absence of compound.
(§3) In some cases, the potency of compounds was measured using either the Patchliner automated patch clamp platform (Nanion) or manual patch clamp techniques. Both approaches allowed the compounds to be characterized based upon the ability of a compound to modulate use- and/or state-dependence across human Nav1.7 (hNav1.7), human Nav1.5 (hNav1.5) and rat Nav1.2 (rNav1.2). The potency data is tabulated in Table 2 and is represented by six data fields. Three of the six fields represent potency data measured with the Patchliner automated platform under varying use- and state-dependent electrophysiology protocols similar to the PatchXpress protocols detailed above. For example, the second data column describes the potency of compounds in their ability to block 50% of Nav1.7 channels when the channel is repetitively activated by depolarizing voltage potentials to induce slow inactivation in approximately 50% of channels (Table 2: h Nav1.7: IC50 Slow Inactivation Block, Automated Patchclamp). The next three data fields describe the data generated from manual patchclamp electrophysiology measurements using similar methods to those employed for automated patchclamp studies.

human Nav1.5 (hNav1.5) = target: T2, human Nav1.5 (hNav1.5) (Homo sapiens, UniProt Q14524); test: hNav1.5 slow inactivation block, manual patchclamp; details: HEK 293F cells stably expressing hNav1.5
T2 construct: expressed in transfected cells
Description: as §1, with “CO2. […]” for “CO2.”
as §2, §3

human Nav1.7 (hNav1.7) [2] = target: T1, human Nav1.7 (hNav1.7); test: hNav1.7 slow inactivation block, automated patchclamp; details: HEK 293F cells stably expressing hNav1.7, slow inactivation induced in approximately 50% of channels
Description: as §1, §2, §3

rat Nav1.2 (rNav1.2) [3] = target: T3, rat Nav1.2 (rNav1.2) (Rattus norvegicus, UniProt P04775); test: rNav1.2 slow inactivation block, manual patchclamp; details: HEK 293F cells stably expressing rNav1.2
T3 construct: expressed in transfected cells
Description: as §1, §2, §3

rat Nav1.2 (rNav1.2) [4] = target: T3, rat Nav1.2 (rNav1.2); test: rNav1.2 slow inactivation block, automated patchclamp; details: HEK 293F cells stably expressing rNav1.2
Description: as §1, §2, §3

T2 sequence (Q14524 whole entry): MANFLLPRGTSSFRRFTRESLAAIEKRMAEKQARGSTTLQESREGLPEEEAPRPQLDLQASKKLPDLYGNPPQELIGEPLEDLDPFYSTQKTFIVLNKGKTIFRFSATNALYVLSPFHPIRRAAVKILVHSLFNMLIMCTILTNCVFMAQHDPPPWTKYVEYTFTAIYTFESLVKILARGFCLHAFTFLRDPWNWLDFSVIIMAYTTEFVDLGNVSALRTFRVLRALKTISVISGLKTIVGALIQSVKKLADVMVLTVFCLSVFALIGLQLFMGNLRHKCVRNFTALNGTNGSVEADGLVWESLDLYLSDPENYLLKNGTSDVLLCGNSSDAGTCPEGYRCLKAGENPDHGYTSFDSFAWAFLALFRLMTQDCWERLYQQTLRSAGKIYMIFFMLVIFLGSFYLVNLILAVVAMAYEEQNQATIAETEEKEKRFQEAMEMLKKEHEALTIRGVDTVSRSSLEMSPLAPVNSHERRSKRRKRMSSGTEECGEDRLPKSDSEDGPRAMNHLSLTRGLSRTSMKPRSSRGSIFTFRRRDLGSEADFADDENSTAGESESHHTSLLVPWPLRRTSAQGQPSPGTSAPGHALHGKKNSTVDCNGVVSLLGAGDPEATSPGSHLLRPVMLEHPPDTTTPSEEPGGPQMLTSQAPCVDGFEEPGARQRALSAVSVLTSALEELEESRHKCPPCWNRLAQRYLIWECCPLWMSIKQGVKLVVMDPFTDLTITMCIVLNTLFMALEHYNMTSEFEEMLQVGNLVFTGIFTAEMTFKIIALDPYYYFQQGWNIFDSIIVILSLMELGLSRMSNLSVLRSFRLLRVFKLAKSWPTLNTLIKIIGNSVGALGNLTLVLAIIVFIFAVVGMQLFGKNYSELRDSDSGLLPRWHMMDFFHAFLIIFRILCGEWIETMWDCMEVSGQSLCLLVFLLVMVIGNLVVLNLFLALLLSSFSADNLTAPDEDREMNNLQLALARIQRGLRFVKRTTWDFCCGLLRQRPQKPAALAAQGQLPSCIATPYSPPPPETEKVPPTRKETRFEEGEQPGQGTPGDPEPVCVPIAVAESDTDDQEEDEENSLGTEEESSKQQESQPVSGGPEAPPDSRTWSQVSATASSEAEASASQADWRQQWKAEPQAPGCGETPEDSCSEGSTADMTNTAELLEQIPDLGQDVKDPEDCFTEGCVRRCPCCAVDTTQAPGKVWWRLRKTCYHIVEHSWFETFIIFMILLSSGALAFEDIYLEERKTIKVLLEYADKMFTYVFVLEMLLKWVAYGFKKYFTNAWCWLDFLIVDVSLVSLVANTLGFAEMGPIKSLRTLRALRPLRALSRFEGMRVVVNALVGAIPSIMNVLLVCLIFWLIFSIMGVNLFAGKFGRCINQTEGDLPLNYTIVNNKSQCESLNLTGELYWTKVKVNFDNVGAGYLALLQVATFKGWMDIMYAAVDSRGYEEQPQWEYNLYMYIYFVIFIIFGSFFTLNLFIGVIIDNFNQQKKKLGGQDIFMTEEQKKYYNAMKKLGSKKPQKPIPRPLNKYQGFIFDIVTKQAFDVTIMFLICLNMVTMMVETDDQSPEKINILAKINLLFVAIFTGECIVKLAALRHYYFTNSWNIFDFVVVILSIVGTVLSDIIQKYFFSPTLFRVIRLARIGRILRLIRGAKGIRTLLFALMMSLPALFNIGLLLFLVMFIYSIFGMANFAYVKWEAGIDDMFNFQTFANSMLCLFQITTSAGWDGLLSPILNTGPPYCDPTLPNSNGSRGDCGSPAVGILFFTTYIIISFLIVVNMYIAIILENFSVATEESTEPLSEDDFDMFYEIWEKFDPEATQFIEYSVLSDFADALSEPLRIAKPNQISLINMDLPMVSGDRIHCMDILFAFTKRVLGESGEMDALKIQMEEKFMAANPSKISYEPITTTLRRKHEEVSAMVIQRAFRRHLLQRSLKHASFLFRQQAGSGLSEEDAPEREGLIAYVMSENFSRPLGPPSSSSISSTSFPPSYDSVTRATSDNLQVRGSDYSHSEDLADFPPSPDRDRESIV
T1 sequence (Q15858 whole entry): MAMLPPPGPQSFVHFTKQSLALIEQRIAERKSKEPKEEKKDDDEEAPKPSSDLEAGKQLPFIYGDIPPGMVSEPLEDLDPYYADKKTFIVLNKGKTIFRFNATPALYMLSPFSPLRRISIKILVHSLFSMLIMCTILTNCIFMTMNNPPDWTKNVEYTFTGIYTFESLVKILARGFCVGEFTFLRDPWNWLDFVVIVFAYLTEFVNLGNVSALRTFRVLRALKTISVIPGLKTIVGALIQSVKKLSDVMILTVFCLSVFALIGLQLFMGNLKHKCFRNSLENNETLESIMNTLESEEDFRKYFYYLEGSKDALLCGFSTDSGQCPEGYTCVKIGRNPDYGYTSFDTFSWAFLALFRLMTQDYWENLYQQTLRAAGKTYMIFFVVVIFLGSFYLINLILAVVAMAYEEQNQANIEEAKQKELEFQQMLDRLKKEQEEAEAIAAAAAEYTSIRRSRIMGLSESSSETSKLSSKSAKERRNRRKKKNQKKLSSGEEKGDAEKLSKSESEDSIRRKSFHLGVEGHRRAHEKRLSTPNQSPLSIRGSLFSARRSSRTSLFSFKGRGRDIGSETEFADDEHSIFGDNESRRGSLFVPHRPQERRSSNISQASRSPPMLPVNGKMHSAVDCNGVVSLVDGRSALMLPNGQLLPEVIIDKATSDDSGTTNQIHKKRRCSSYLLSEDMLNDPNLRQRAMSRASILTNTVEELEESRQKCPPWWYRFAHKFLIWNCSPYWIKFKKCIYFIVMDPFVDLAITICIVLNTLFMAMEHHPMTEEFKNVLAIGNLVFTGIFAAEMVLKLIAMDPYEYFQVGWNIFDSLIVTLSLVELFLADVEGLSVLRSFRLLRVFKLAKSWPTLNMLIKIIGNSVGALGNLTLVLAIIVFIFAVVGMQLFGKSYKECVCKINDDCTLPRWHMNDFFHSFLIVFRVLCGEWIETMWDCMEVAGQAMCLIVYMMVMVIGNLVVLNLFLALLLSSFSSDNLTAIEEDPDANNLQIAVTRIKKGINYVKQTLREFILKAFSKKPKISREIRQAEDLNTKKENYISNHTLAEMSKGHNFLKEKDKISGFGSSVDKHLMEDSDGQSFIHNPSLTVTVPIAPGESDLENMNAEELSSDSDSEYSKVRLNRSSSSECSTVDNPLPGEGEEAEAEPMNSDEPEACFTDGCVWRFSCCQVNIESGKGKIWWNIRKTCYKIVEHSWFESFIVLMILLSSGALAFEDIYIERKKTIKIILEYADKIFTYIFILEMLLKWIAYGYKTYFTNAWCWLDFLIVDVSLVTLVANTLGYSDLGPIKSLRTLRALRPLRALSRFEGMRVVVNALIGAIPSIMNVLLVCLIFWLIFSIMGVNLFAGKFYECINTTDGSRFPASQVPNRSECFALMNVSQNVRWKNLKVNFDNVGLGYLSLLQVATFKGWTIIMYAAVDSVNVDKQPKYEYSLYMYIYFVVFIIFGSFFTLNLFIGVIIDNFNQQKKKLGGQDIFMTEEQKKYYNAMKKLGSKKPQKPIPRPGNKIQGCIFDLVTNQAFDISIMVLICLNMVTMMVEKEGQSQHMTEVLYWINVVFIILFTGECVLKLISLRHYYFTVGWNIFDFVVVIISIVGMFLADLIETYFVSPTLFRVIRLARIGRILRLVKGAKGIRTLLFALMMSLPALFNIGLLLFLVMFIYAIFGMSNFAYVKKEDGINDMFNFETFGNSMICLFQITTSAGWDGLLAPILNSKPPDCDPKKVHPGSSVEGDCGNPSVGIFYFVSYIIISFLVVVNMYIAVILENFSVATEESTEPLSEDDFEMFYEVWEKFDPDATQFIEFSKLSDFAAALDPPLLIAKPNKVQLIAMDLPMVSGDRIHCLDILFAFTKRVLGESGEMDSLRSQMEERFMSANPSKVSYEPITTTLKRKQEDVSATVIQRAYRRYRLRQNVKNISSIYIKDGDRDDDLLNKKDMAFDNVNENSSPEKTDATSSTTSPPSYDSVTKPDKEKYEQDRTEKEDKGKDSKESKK
T1 sequence (Q07699 19-218 partner): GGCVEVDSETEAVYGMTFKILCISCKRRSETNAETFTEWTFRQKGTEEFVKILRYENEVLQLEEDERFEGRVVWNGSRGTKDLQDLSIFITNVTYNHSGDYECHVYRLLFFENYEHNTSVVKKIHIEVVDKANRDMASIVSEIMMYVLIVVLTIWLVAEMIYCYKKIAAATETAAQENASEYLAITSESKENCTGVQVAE

Compound	IC50 (human Nav1.7 (hNav1.7) [1])	IC50 (human Nav1.7 (hNav1.7) [2])	IC50 (rat Nav1.2 (rNav1.2) [3])	IC50 (rat Nav1.2 (rNav1.2) [4])	IC50 (human Nav1.5 (hNav1.5))
O=C(NCc1cc(F)c(Oc2cc(Br)cc(C(F)(F)F)c2)cc1F)c1ncns1 [Compound 1, N-(4-(3-bromo-5-(trifluoromethyl)phenoxy)-2,5-difluorobenzyl)-1,2,4-thiadiazole-5-carboxamide]	294 nM				< 1000 nM
CN(c1ncns1)S(=O)(=O)c1cc(F)c(Oc2cc(Br)cc(C(F)(F)F)c2)cc1F [Compound 2, 4-(3-bromo-5-(trifluoromethyl)phenoxy)-2,5-difluoro-N-methyl-N-(1,2,4-thiadiazol-5-yl)benzenesulfonamide]	484 nM				> 3200 nM
O=S(=O)(Nc1ncns1)c1cc(F)c(Oc2cc(C(F)(F)F)cc(C(F)(F)F)c2)cc1F [Compound 5, 4-[3,5-bis(trifluoromethyl)phenoxy]-2,5-difluoro-N-(1,2,4-thiadiazol-5-yl)benzene-1-sulfonamide]	393 nM	7250 nM	19400 nM		16600 nM
O=C(Cc1cccc(-c2cc(C(F)(F)F)cc(C(F)(F)F)c2)c1)Nc1ncns1 [Compound 21, 2-{3-[3,5-bis(trifluoromethyl)phenyl]phenyl}-N-(1,2,4-thiadiazol-5-yl)acetamide]	~383 nM		~389 nM		550 nM
NC(=O)c1cc(Oc2cc(F)c(S(=O)(=O)Nc3ncns3)cc2F)cc(C(F)(F)F)c1 [Compound 24, 3-{2,5-difluoro-4-[(1,2,4-thiadiazol-5-yl)sulfamoyl]phenoxy}-5-(trifluoromethyl)benzamide]	3890 nM	23600 nM	> 10000 nM	> 32000 nM	
CCOC(=O)c1cc(Oc2cc(F)c(S(=O)(=O)Nc3ncns3)cc2F)cc(C(F)(F)F)c1 [Compound 26, ethyl 3-{2,5-difluoro-4-[(1,2,4-thiadiazol-5-yl)sulfamoyl]phenoxy}-5-(trifluoromethyl)benzoate]	2130 nM	~37200 nM	> 10000 nM	> 32000 nM	
N#Cc1cc(Oc2cc(F)c(S(=O)(=O)Nc3ncns3)cc2F)cc(C(F)(F)F)c1 [Compound 27, 4-[3-cyano-5-(trifluoromethyl)phenoxy]-2,5-difluoro-N-(1,2,4-thiadiazol-5-yl)benzene-1-sulfonamide]	2170 nM	18000 nM	~32000 nM	~32000 nM	
O=S(=O)(Nc1ncns1)c1cc(F)c(Oc2cc(F)cc(F)c2)cc1F [Compound 28, 4-(3,5-difluorophenoxy)-2,5-difluoro-N-(1,2,4-thiadiazol-5-yl)benzene-1-sulfonamide]	~3960 nM	~37900 nM	> 10000 nM	> 32000 nM	
O=S(=O)(Nc1cccnn1)c1cc(F)c(Oc2cc(C(F)(F)F)cc(C(F)(F)F)c2)cc1F [Compound 30, 4-[3,5-bis(trifluoromethyl)phenoxy]-2,5-difluoro-N-(pyridazin-3-yl)benzene-1-sulfonamide]	4840 nM	~36000 nM	11400 nM	~25200 nM	
O=S(=O)(Nc1ncns1)c1cc(F)c(Oc2cc(F)cc(C(F)(F)F)c2)cc1F [Compound 32, 2,5-difluoro-4-(3-fluoro-5-(trifluoromethyl)phenoxy)-N-(1,2,4-thiadiazol-5-yl)benzenesulfonamide]	942 nM	~21100 nM	> 10000 nM	> 32000 nM	
CCCOc1cc(Oc2cc(F)c(S(=O)(=O)Nc3ncns3)cc2F)cc(C(F)(F)F)c1 [Compound 37, 2,5-difluoro-4-[3-propoxy-5-(trifluoromethyl)phenoxy]-N-(1,2,4-thiadiazol-5-yl)benzene-1-sulfonamide]	~413 nM	~17600 nM	> 10000 nM		7210 nM
CN(C)C(=O)c1cc(Oc2cc(F)c(S(=O)(=O)Nc3ncns3)cc2F)cc(C(F)(F)F)c1 [Compound 38, 3-{2,5-difluoro-4-[(1,2,4-thiadiazol-5-yl)sulfamoyl]phenoxy}-N,N-dimethyl-5-(trifluoromethyl)benzamide]	1600 nM	~17100 nM			> 32000 nM
CN(Cc1cccc(-c2cc(C(F)(F)F)cc(C(F)(F)F)c2)c1)C(=O)[C@@H]1CCCN1 [Compound 58, (2S)-N-({3-[3,5-bis(trifluoromethyl)phenyl]phenyl}methyl)-N-methylpyrrolidine-2-carboxamide]	777 nM	2470 nM	733 nM	2750 nM	

Compounds with a lower IC50 (human Nav1.7 (hNav1.7) [1]), results first:

IC50 (human Nav1.7 (hNav1.7) [1])	IC50 (human Nav1.7 (hNav1.7) [2])	IC50 (rat Nav1.2 (rNav1.2) [3])	IC50 (rat Nav1.2 (rNav1.2) [4])	Compound	IC50 (human Nav1.5 (hNav1.5))
256 nM	~11900 nM	> 10000 nM		O=S(=O)(Nc1ncns1)c1cc(F)c(Oc2cc(Cl)cc(C(F)(F)F)c2)cc1F [Compound 36, 4-[3-chloro-5-(trifluoromethyl)phenoxy]-2,5-difluoro-N-(1,2,4-thiadiazol-5-yl)benzene-1-sulfonamide]	~4960 nM
225 nM	1880 nM	120 nM	1090 nM	NC1(C(=O)NCc2cc(-c3cc(C(F)(F)F)cc(C(F)(F)F)c3)cc(C(F)(F)F)c2)CCCC1 [Compound 53, 1-amino-N-((3′,5,5′-tris(trifluoromethyl)-[1,1′-biphenyl]-3-yl)methyl)cyclopentane-1-carboxamide]	
186 nM	~6250 nM	~2740 nM		COc1cc(Oc2cc(F)c(S(=O)(=O)Nc3ncns3)cc2F)cc(C(F)(F)F)c1 [Compound 34, 2,5-difluoro-4-[3-methoxy-5-(trifluoromethyl)phenoxy]-N-(1,2,4-thiadiazol-5-yl)benzene-1-sulfonamide]	1600 nM
162 nM	3610 nM	156 nM	2580 nM	O=C(NCc1cc(-c2cc(C(F)(F)F)cc(C(F)(F)F)c2)cc(C(F)(F)F)c1)[C@H]1CCCN1 [Compound 55, (R)-N-((3′,5,5′-tris(trifluoromethyl)-[1,1′-biphenyl]-3-yl)methyl)pyrrolidine-2-carboxamide]	
160 nM	5620 nM	176 nM	12300 nM	CN1CCC[C@H]1C(=O)NCc1cccc(-c2cc(C(F)(F)F)cc(C(F)(F)F)c2)c1 [Compound 57, (2S)-N-({3-[3,5-bis(trifluoromethyl)phenyl]phenyl}methyl)-1-methylpyrrolidine-2-carboxamide]	
153 nM	8690 nM	166 nM	8730 nM	O=C(NCc1cccc(-c2cc(C(F)(F)F)cc(C(F)(F)F)c2)c1)[C@@H]1CCCN1S(=O)(=O)Nc1ccccc1 [Compound 59, (2S)-N-({3-[3,5-bis(trifluoromethyl)phenyl]phenyl}methyl)-1-(phenylsulfamoyl)pyrrolidine-2-carboxamide]	
118 nM	~10000 nM	~4910 nM		O=S(=O)(Nc1ncns1)c1cc(F)c(Oc2cc(Br)cc(C(F)(F)F)c2)cc1F [Compound 33, 4-[3-bromo-5-(trifluoromethyl)phenoxy]-2,5-difluoro-N-(1,2,4-thiadiazol-5-yl)benzene-1-sulfonamide]	~4010 nM
